Reference: article PMC4790851, “Iminosugars Inhibit Dengue Virus Production via Inhibition of ER Alpha-Glucosidases—Not Glycolipid Processing Enzymes” (PLoS Neglected Tropical Diseases, 2016)
Like-named read-outs stand apart in the source and are kept apart here.

Columns and labels:
[1] = biological target: T1, Mouse ER α-glucosidase II (Mus musculus, UniProt Q8BHN3); assay: In vitro enzyme inhibition, 4MUG hydrolysis; assay type: biochemical; settings: concentration required to inhibit the enzyme to 50% activity
T1 sequence (Q8BHN3 33-944): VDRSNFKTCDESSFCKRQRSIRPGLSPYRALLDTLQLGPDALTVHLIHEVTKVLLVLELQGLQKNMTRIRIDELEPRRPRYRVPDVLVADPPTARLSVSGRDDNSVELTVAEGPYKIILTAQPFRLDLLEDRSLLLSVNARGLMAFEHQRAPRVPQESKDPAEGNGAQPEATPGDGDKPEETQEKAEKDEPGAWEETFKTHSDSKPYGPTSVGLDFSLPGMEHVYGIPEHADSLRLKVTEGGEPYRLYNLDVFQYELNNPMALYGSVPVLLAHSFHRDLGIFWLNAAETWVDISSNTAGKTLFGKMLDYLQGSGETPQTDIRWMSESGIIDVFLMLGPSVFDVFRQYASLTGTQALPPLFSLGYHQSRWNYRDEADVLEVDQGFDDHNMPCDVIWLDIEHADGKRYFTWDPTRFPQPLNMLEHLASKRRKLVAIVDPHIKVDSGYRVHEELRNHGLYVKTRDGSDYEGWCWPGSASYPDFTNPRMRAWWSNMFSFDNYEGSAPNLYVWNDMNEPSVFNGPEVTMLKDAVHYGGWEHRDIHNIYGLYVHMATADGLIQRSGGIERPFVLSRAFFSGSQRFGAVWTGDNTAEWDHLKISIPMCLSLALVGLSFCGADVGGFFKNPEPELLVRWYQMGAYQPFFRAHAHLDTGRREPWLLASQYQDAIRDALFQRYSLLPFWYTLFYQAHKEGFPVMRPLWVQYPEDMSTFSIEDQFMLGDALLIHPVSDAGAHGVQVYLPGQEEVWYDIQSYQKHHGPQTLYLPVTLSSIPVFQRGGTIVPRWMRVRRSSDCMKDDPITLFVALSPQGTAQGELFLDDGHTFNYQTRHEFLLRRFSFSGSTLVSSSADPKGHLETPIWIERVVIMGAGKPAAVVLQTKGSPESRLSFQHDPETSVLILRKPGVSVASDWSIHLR
T1 sequence (O08795 15-521 partner): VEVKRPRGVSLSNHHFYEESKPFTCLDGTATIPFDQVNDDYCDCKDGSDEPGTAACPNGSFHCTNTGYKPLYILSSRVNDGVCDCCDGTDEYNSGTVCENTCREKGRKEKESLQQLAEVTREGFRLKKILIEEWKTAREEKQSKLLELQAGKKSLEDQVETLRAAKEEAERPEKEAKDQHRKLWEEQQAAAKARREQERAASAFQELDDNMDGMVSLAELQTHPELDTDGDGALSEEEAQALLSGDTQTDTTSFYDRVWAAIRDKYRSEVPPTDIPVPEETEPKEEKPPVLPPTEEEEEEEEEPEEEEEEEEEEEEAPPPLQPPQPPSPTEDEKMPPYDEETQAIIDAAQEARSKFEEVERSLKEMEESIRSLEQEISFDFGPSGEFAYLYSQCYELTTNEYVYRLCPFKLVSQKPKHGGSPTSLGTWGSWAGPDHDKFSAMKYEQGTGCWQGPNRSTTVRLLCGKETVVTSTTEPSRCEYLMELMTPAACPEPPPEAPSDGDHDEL
Protocol: Recombinant Mus musculus ER alpha-glucosidase II inhibition was measured by incubating 20 nM enzyme with various concentrations of inhibitors in 100 mM potassium phosphate pH 7.2 at 37 °C for 5 minutes. Activity was measured by addition of 0.25 mM 4-methylumbelliferyl α-D-glucopyranoside (4MUG) (Sigma Aldrich) in black, non-binding surface-treated microplates (Corning). Fluorescence upon hydrolysis of the 4MUG was measured at λex of 355 nm and λem of 460 nm in a M5 multi-mode plate reader (Molecular Devices) at 37 °C, measuring fluorescence every minute for a total of 30 minutes. The initial velocity was fit in the linear range of measurements, and activity was normalized to the uninhibited control in order to plot activity against the inhibitor concentration. A sigmoidal, four-parameter function with a variable slope was used to determine the EC50 values in Prism (GraphPad).

[2] = biological target: T2, Human lysosome α-galactosidase (Homo sapiens, UniProt P06280); assay: In vitro enzyme inhibition; assay type: biochemical
T2 sequence (P06280 32-429): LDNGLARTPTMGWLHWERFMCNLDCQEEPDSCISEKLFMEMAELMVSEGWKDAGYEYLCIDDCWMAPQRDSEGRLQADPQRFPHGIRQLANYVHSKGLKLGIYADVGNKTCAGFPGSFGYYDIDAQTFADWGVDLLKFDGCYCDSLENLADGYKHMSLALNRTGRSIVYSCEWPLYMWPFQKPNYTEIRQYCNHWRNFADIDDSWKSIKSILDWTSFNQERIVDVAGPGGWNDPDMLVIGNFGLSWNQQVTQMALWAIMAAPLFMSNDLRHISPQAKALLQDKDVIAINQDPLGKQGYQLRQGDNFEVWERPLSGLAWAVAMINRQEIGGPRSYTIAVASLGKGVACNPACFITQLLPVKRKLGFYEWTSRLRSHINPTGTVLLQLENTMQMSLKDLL

[3] = biological target: T3, Rat intestinal sucrase (Rattus norvegicus, UniProt P23739); assay: In vitro enzyme inhibition, glucose release from disaccharide; assay type: biochemical
T3 construct: from tissue; host or cells: rat intestine

[4] = tested on: DENV2 strain 16681; assay: In vitro antiviral assay: infectious DENV titer from infected MDMΦs by LLC-MK2 plaque assay; assay type: cell-based, dengue virus serotype 2; settings: Dengue virus, DENV2, LLC-MK2, 48 h, MDMΦs infected with DENV2 MOI 1, drug 48 h, infectious titer by plaque assay; table values with 95% confidence interval in parentheses; read-out: EC50
[5] = tested on: MDMΦs; assay: Cytotoxicity, MTS cell proliferation assay; assay type: cell-based, human
Protocol: Cytotoxicity of compounds was assessed by a cell proliferation assay for metabolic activity using a CellTiter 96 AQueous One Solution Cell Proliferation Assay (Promega) as per the manufacturer’s instructions. Briefly, 20 μl of a solution containing tetrazolium compound [3-(4,5-[…])-5-(3-carboxymethoxyphenyl)-2-(4-sulfophenyl)-2H-tetrazolium; MTS] and electron coupling reagent (phenazine ethosulfate) was added to cells covered or suspended in 100 μl of culture medium in a 96-well plate. Samples were incubated for approximately 4 hours (37°C, 5% CO2), and the absorbance at 490 nm (A490) was measured on a SpectraMax M5 microplate reader (Molecular Devices).

[6] = tested on: monosialodihexosylganglioside (GM3) production; assay: Glycosphingolipid analysis: GM3 levels in MDMΦs by NP-HPLC; assay type: cell-based, human; settings: 48 h, uninfected MDMΦ, normalized to untreated controls, mean ± SD, min. 3 donors
[7] = biological target: T4, Rat intestinal isomaltase (Rattus norvegicus, UniProt P23739); assay: In vitro enzyme inhibition, glucose release from disaccharide; assay type: biochemical
T4 construct: from tissue; host or cells: rat intestine

[8] = biological target: T5, Glucosyltransferase HL60 (Homo sapiens, UniProt Q16739); assay: In vitro enzyme inhibition; assay type: biochemical
T5 construct: endogenous in cells; host or cells: HL60
T5 sequence (Q16739 1-394): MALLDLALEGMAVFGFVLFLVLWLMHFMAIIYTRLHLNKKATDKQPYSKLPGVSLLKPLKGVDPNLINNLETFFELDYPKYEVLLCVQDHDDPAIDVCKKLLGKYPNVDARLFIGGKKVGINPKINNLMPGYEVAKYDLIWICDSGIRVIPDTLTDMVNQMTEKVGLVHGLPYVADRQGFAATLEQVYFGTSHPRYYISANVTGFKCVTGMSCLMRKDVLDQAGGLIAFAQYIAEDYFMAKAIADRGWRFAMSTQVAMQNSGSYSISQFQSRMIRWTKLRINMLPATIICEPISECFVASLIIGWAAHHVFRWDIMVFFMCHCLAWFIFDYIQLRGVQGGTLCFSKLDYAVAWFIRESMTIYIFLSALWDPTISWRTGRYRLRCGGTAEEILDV

[9] = biological target: Rat intestinal maltase; assay: In vitro enzyme inhibition, glucose release from disaccharide; assay type: biochemical; settings: concentration required to inhibit the enzyme to 50% activity
Protocol: Inhibition of glucosidases and glycosidases was detected as previously described. Briefly, assays were performed at the optimum pH of each enzyme, and appropriate disaccharide was provided as substrate for glucosidase release assays. Release of D-glucose was measured using a Glucose B-test (Wako Diagnostics). Appropriate p-nitrophenyl glycoside was added as substrate for additional glycosidase assays, and assays were stopped by adding 400 mM Na2CO3. Release of p-nitrophenol was measured spectrophotometrically at 400 nm.

[10] = biological target: Human lysosome α-glucosidase (Homo sapiens, UniProt P10253); assay: In vitro enzyme inhibition; assay type: biochemical
[11] = tested on: DENV; design: method as in PMID 23070155, PMID 23376501, PMID 22020302, PMID 22867971; settings: post-exposure therapeutic administration; cited from earlier work
[12] = concentration required to inhibit the enzyme to 50% activity, read-out: IC50

T3 sequence (P23739 whole entry): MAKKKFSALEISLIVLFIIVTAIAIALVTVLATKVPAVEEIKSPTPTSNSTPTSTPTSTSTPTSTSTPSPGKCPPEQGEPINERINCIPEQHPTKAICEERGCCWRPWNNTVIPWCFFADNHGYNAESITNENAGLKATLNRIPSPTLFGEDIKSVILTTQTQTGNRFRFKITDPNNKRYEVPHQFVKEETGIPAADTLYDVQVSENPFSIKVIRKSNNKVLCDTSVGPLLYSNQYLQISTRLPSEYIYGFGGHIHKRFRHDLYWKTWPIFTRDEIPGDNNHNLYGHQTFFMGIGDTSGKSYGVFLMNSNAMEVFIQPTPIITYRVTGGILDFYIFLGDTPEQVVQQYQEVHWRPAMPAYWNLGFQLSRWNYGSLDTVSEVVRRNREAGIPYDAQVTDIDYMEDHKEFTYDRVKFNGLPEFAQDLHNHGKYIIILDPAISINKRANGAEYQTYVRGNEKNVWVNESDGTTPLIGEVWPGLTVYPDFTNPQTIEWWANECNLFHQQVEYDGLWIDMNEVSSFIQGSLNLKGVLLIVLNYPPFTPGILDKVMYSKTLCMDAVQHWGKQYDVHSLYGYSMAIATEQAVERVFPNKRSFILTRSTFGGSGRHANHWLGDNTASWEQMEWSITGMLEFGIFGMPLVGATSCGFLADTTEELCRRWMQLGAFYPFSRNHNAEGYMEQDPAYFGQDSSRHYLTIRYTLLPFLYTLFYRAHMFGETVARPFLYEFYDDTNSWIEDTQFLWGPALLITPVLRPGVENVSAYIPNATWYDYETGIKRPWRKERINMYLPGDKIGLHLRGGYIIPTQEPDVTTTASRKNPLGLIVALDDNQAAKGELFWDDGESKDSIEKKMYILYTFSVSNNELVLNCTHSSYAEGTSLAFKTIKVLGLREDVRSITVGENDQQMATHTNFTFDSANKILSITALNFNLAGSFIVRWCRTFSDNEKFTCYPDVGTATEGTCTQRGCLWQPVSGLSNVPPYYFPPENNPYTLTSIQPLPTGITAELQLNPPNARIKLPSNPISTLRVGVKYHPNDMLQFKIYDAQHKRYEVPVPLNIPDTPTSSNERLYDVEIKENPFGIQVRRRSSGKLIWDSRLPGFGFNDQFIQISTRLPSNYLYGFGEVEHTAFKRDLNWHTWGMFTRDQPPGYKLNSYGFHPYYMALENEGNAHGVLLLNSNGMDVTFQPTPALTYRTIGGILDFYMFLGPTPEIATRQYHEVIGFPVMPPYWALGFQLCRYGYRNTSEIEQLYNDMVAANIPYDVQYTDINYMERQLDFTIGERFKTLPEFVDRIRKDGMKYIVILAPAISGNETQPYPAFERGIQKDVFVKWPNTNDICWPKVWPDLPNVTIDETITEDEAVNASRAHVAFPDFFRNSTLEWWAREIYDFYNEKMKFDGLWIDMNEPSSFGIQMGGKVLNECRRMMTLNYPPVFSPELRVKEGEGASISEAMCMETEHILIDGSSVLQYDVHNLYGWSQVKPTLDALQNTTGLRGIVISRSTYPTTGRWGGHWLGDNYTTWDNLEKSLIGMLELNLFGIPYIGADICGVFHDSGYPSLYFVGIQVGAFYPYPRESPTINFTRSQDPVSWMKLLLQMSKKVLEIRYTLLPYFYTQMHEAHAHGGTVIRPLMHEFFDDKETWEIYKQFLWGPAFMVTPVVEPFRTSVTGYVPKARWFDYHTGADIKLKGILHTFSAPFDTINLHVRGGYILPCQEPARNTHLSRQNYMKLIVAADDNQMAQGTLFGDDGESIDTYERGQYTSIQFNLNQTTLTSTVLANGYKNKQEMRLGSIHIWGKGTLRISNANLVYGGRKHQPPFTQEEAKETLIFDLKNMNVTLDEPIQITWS
T4 sequence (P23739 whole entry): as above

SMILES: O[C@H]1[C@H](O)[C@@H](O)CN2CC[C@H](O)[C@H]12 [Castanospermine, castanospermine]
- IC50 [1]: 58.9 µM
- IC50 [2]: > 1000 µM
- IC50 [3]: 0.28 µM
- EC50 [4]: 36.4 µM
- MNTD (maximum non-toxic dose tested) [5]: 100 µM
- GM3 production (%) ([6]; 100 μM (MNTD)): 101.6 ± 6.7%
- IC50 [7]: 6.1 µM
- IC50 [8]: > 1000 µM
- IC50 [9]: 0.37 µM
- IC50 [10]: 2 µM

SMILES: OC[C@H]1NC[C@H](O)[C@@H](O)[C@H]1O [DGJ, 1-deoxygalactonojirimycin]
- IC50 [1]: > 1000 µM
- IC50 [3, 12]: 340 µM
- IC50 [7, 12]: > 1000 µM
- IC50 [9]: 362 µM

SMILES: OC[C@H]1NC[C@H](O)[C@@H](O)[C@@H]1O [DNJ, 1-Deoxynojirimycin]
- IC50 [1]: 11.4 µM
- EC50 [4]: 308 µM
- MNTD (maximum non-toxic dose tested) [5]: 10000 µM
- IC50 [7, 12]: 0.8 µM
- IC50 [9]: 0.2 µM

SMILES: COCCCCCCCCCN1C[C@H](O)[C@@H](O)[C@H](O)[C@H]1CO [MON-DNJ, N-(9-methoxynonyl)-DNJ]
- protection in lethal mouse models of DENV infection [11]: protection in lethal mouse models

SMILES: CCCCCCCCCN1C[C@H](O)[C@@H](O)[C@H](O)[C@H]1CO [NN-DNJ]
- IC50 [1]: 3.1 µM
- IC50 [2, 12]: 765 µM
- IC50 [3, 12]: 0.74 µM
- EC50 [4]: 1.25 µM
- MNTD (maximum non-toxic dose tested) [5]: 31.6 µM
- GM3 production (%) ([6]; 31.6 μM (MNTD)): 5.9 ± 1.2%
- IC50 [7, 12]: 7.3 µM
- IC50 [9]: 0.46 µM
- IC50 [10, 12]: 0.14 µM
